Assays:
[1] = test system: rumen fluid; conditions: in vitro, J. Dairy Sci., 78, 2797 (1995); cited from earlier work
[2] = test system: Hereford steers; test: Beef cattle feeding trial, dietary monensin in MEGALAC diet; type: in vivo
Description: (§1) Eight Hereford steers are selected and equipped with rumen and duodenal cannulae. All steers are housed in individual tie stalls. The duration of the trial is the last 90 days of the finishing period.
(§2) The eight steers are used in two four-by-four Latin Square designs. Each square has four steers with four treatments imposed. The four treatments are 0, 10, 40 and 70 mg of dietary monensin. Each square has a different source of dietary fatty acids. In the first square, dietary fat is supplied by linseed oil, which has a high proportion of fatty acid linolenate. The second square has the dietary fat supplied by MEGALAC, which is a calcium salt of palm oil fatty acids having a high proportion of fatty acid oleate.
(§3) Steers are fed identical diets in both squares except for source of fatty acids, and the diets are formulated for high rate of body weight gain (1 kg/day). All diets are calculated to deliver 0.75 kg/steer/day of added dietary linseed oil or MEGALAC. Remaining dietary ingredients are low in fat, and include corn silage, corn, barley, soybean meal, bloodmeal, Smartamine-M (rumen bypass methionine), sodium bicarbonate and vitamin-mineral premix. All diets are offered as Total Mixed Rations twice daily in quantities to assure at least 10% refusal per day of the amount offered.
(§4) Steers are fed their assigned diets for two weeks, with week one as an adaptation and week two as the experimental feeding period. Sampling is on the last 3 days of this second week. All steers are then moved onto a different diet in such a manner that by the end of the trial all steers have received all diets within each Latin Square.
(§5) During the second week of each period daily dry matter intakes are recorded. Total mixed rations are sampled daily and composited weekly. These are analyzed for crude protein, NDF and total fat. During the last 3 days of the second week individual body weights are recorded.
(§6) During the last 3 days of the second week rate of passage from the rumen is estimated using dye marker techniques. The liquid and solids markers are placed into the rumen daily beginning on day 7 of the adaptation period, with duodenal samples taken on the last 3 days of the experimental period. Duodenal samples are stored frozen for later analysis of total fat, fatty acid profile and marker. Concurrent rumen samples are taken. Liquid turnover rate is estimated from the dilution of dye in the liquid portion of rumen samples. Rumen contents are assayed for total fat, fatty acid profile and marker. Each Latin square is analyzed separately.

[3] = test system: Holstein cows; test: Dairy cattle feeding trial, dietary monensin in MEGALAC diet; type: in vivo
Description: (§7) Eight Holstein cows are selected and equipped with rumen and duodenal cannulae. All cows are housed in individual tie stalls and are commencing the trial at 45 days in lactation.
as §2, with “cows” for “steers”, “employed” for “used”, “mg/kg DM” for “mg”
(§8) Cows are fed identical diets in both squares except for source of fatty acids, and are formulated for high production. Nutrient composition is formulated for all diets at 17% crude protein with 65% as rumen undegradable protein, 26% Neutral Detergent Fiber, 1.7 Mcal/kg net energy. All diets contain 4% added fat on a dry matter basis from MEGALAC or linseed oil. A daily dry matter intake of 25 kg/cow is calculated to deliver approximately 1 kg of linseed oil or MEGALAC per cow per day. Remaining dietary ingredients are low in fat, and include alfalfa haylage, corn silage, corn, barley, soybean meal, blood meal, Smartamine-M (rumen bypass methionine), sodium bicarbonate and vitamin-mineral premix. All diets are offered as Total Mixed Rations twice daily in quantities to assure at least 10% refusal per day of the amount offered.
as §4, with “Cows” for “Steers”, “cows” for “steers”
(§9) During the second week of each period daily, dry matter intake and milk production are recorded. Total mixed rations are sampled daily and composited weekly. These are analyzed for crude protein, NDF and total fat. During the last 3 days of the second week individual proportional milk samples are taken and separated into two subsamples. One subsample is used to assay for total fat content and true protein, and the second is frozen for subsequent analysis of fatty acid profile in the milk.
as §6, with “week,” for “week”, “duodonal” for “duodenal”

[4] = test system: Hereford steers; test: Beef cattle feeding trial, dietary monensin in linseed oil diet; type: in vivo
Description: as §1, §2, §3, §4, §5, §6

[5] = test system: Holstein cows; test: Dairy cattle feeding trial, dietary monensin in linseed oil diets; type: in vivo
Description: as §7
as §2, with “cows” for “steers”, “employed” for “used”, “mg/kg DM” for “mg”
as §8
as §4, with “Cows” for “Steers”, “cows” for “steers”
as §9
as §6, with “week,” for “week”, “duodonal” for “duodenal”

[6] = 10 and 40 mg monensin, P<0.05, steers
[7] = 40 mg monensin, P<0.05, MEGALAC diet
[8] = 70 mg monensin, P<0.05, MEGALAC diet
[9] = 40 mg monensin, P<0.05, linseed oil diet
[10] = 70 mg monensin, P<0.05, linseed oil diet

For `CC1(C)S[C@@H]2[C@H](NC(=O)[C@H](N)c3ccc(O)cc3)C(=O)N2[C@H]1C(=O)O` [amoxicillin], the “Antimicrobial inhibition of lipolysis and lipid biohydrogenation of soybean oil” value [1] is given as “most potent inhibitors”.

In the case of `CC[C@@]1([C@@H]2O[C@@H]([C@H]3O[C@@](O)(CO)[C@H](C)C[C@@H]3C)C[C@@H]2C)CC[C@H]([C@]2(C)CC[C@]3(C[C@H](O)[C@@H](C)[C@@H]([C@@H](C)[C@@H](OC)[C@H](C)C(=O)O)O3)O2)O1` [monensin], the DMI ([2]; 10 mg monensin addition, steers) is reported as “no effect”, the “Rumen rate of passage” value ([2]; 10 mg monensin, P<0.1, steers) is reported as “tends to increase” and the “Rumen liquid turnover rate increase” value ([2]; 70 mg monensin, P<0.1, steers) is reported as 4%. The Bypass linolenic acid ([2]; 70 mg monensin, steers) was “about 39%”, the “Increase of oleic acid in duodenal contents” value [2, 6] was 22 percentage points and the “Estimated rumen bypass rate for oleic acid” value ([2]; 10 and 40 mg monensin, steers (0 mg: 66%)) was 88%. The “DMI reduction compared to controls” value ([2]; 40 and 70 mg monensin, steers) was 8%, the “Rumen rate of passage increase” value ([2]; 40 and 70 mg monensin, steers) was 5.4% and the “Rumen liquid turnover rate” value ([2]; between 0, 10 and 40 mg monensin, steers) was “not different”. The DMI ([3]; 0 to 70 mg monensin addition, MEGALAC diet, dairy cows) was “no effect”, the “Milk oleate increase vs. 0 mg supplementation” value ([3]; 10 mg monensin, P<0.05, MEGALAC diet) was 22% and the “Rumen rate of passage” value ([3]; 10 mg monensin, P<0.1, MEGALAC diet) was “tends to increase”. The Milk production improvement ([3]; 10 mg monensin, tends (P<0.1), MEGALAC diet) was 2.8 lbs. per day, the “Milk oleate increase vs. 0 mg supplementation” value [3, 7] was 31% and the Milk production improvement [3, 7] was 3.9 lb/day. The Milk production ([3]; 70 mg monensin vs 40 mg, MEGALAC diet) was “no further improvement”, the Bypass linolenic acid ([3]; 70 mg monensin, MEGALAC diet) was “about 33%” and the “Milk fat percentage reduction” value [3, 8] was 0.25 percentage points. For the same compound, the “Milk oleate increase vs. 0 mg supplementation” value [3, 8] was 39%, the “Rumen liquid turnover rate increase” value ([3]; 70 mg monensin, P<0.1, MEGALAC diet) was 6% and the “Estimated rumen bypass rate for oleic acid” value ([3]; 10 and 40 mg monensin, MEGALAC diet (0 mg: 56%)) was 74%. The “Increase of oleic acid in duodenal contents” value ([3]; 10 and 40 mg monensin, P<0.05, MEGALAC diet) was 18 percentage points, the “Rumen rate of passage increase” value ([3]; 40 and 70 mg monensin, MEGALAC diet) was 6.4% and the “Rumen liquid turnover rate” value ([3]; between 0, 10 and 40 mg monensin, MEGALAC diet) was “not different”. For the same compound, the Milk protein percentages ([3]; diets with different concentrations of monensin, MEGALAC diet) was “not different”, the Milk fat percentage ([3]; lower inclusion rates of monensin, MEGALAC diet) was “only a tendency for a reduction” and the “Rumen rate of passage” value ([4]; 10 mg monensin, P<0.1, steers) was “tends to increase”. For the same compound, the DMI ([4]; 10 mg monensin, steers) was “no significant effect”, the “Rumen liquid turnover rate increase” value ([4]; 70 mg monensin, P<0.1, steers) was 5% and the Bypass linolenic acid ([4]; 70 mg monensin, steers) was “about 29%”. The “Increase of linolenic acid in duodenal contents” value [4, 6] was 24 percentage points, the “Rumen bypass rate for linolenic acid” value ([4]; 10 and 40 mg monensin, steers (0 mg: about 10%)) was 34% and the DMI reduction ([4]; 40 and 70 mg monensin diets, steers) was 5%. For the same compound, the “Rumen rate of passage increase” value ([4]; 40 and 70 mg monensin, steers) was 6%, the “Rumen liquid turnover rate” value ([4]; between 0, 40 and 70 mg monensin, steers) was “not different” and the DMI ([5]; 0 to 70 mg monensin addition, linseed oil diet, dairy cows) was “no effect”. The “Milk linolenate increase vs. 0 mg supplementation” value ([5]; 10 mg monensin, P<0.05, linseed oil diet) was 25%, the “Rumen rate of passage” value ([5]; 10 mg monensin, P<0.1, linseed oil diet) was “tends to increase” and the Milk production improvement ([5]; 10 mg monensin, tends (P<0.1), linseed oil diet) was 3 lbs. per day. For the same compound, the “Milk linolenate increase vs. 0 mg supplementation” value [5, 9] was 28%, the Milk production improvement [5, 9] was 3.5 lb/day and the Milk production ([5]; 70 mg monensin vs 40 mg, linseed oil diet) was “no further improvement”. For the same compound, the “Milk fat percentage reduction” value [5, 10] was 0.3 percentage points, the “Milk linolenate increase vs. 0 mg supplementation” value [5, 10] was 37% and the “Rumen liquid turnover rate increase” value ([5]; 70 mg monensin, P<0.1, linseed oil diet) was 5%. For the same compound, the Bypass linolenic acid ([5]; 70 mg monensin, linseed oil diet) was “about 30%”, the “Increase of linolenic acid in duodenal contents” value ([5]; 10 and 40 mg monensin, P<0.05, linseed oil diet) was 20 percentage points and the “Estimated rumen bypass rate for linolenic acid” value ([5]; 10 and 40 mg monensin, linseed oil diet (0 mg: 8%)) was 28%. For the same compound, the “Rumen rate of passage increase” value ([5]; 40 and 70 mg monensin, linseed oil diet) was 6%, the “Rumen liquid turnover rate” value ([5]; between 0, 10 and 40 mg monensin, linseed oil diet) was “not different” and the Milk protein percentages ([5]; diets with different concentrations of monensin, linseed oil diet) was “not different”. The Milk fat percentage ([5]; lower inclusion rates of monensin, linseed oil diet) was “only a tendency for a reduction”.
